Test system: liver transaminases (ALT, AST) and bilirubin
Test: Longitudinal monitoring of liver transaminases (ALT, AST) and bilirubin, relative to prednisolone prophylaxis
Format: in vivo, human
Excerpt: Abbreviations: L, liter; U/L, units per liter; […], upper limit of normal.
Liver transaminases and bilirubin were also monitored over time for patients 2002, 2003, and 2009 (FIG. 11-13).

C[C@]12C=CC(=O)C=C1CC[C@@H]1[C@@H]2C(=O)C[C@@]2(C)[C@H]1CC[C@]2(O)C(=O)CO [prednisone]
Liver function parameters (Patient 2002 (3×10^13 vg/kg), reduced dose of prophylactic prednisone, throughout steroid tapering and >1 year follow up): remained within the normal range

C[C@]12C=CC(=O)C=C1CC[C@@H]1[C@@H]2[C@@H](O)C[C@@]2(C)[C@H]1CC[C@]2(O)C(=O)CO [prednisolone]
Prophylaxis of liver syndromes associated with GAA gene therapy (combination of the viral vector and an anti-transaminitis agent (e.g., prednisolone), conclusion of Example 1): can serve as a prophylactic treatment for liver syndromes
Response of the rise in transaminases to re-initiation of corticosteroid treatment (participant 2001, after AAV vector 3×10^13 vg/kg): responded well
Response of transaminitis to steroid schedule (participant 2003, after AAV vector 6×10^13 vg/kg): responsive to a slowing in the steroid tapering schedule and a small increment in steroid dose
Response of transaminitis to steroid schedule (participant 2009, after AAV vector 6×10^13 vg/kg): responsive to a slowing in the steroid tapering schedule
